Reference: US20240254121A1, “ALKYLAMIDE SUBSTITUTED, ANNULATED IMIDAZOLES AND USE THEREOF AS INSECTICIDES” (Bayer Aktiengesellschaft, priority 2021, published 2024)

Tests used:
Assay type in all cases: in vivo
[1] = tested on: adult unfed cat fleas (Ctenocephalides felis); assay: Ctenocephalides felis oral test; details: 48 h, 100 ppm in citrated cattle blood, after 2 days
Protocol: Ctenocephalides felis—Oral Test • Solvent: Dimethyl Sulfoxide
To produce a suitable preparation of active compound, 10 mg of active compound are dissolved in 0.5 mL solvent, and the concentrate is diluted with citrated cattle blood to the desired concentration.
Approximately 20 adult unfed cat fleas (Ctenocephalides felis) are placed in a flea chamber whose top and bottom is covered with gauze. A chamber whose bottom is sealed with parafilm, is filled with the blood-compound solution and placed on top of the flea chamber, so that the fleas can suck the blood. The blood chamber is heated to 37° C. whereas the flea chamber is kept at room temperature.
After 2 days mortality in % is determined. 100% means all the fleas have been killed; 0% means none of the fleas have been killed.

[2] = tested on: fall armyworm larvae (Spodoptera frugiperda); assay: Spodoptera frugiperda spray test; details: 168 h, maize leaf sections, after 7 days
Protocol: Spodoptera frugiperda—Spray Test • Solvent: 78.0 parts by weight acetone • 1.5 parts by weight dimethylformamide • Emulsifier: alkylarylpolyglycol ether
(§1) To produce a suitable preparation of active compound, 1 part by weight of active compound is mixed with the stated amount of solvents and is diluted with water, containing an emulsifier concentration of 1000 ppm, to the desired concentration. Further test concentrations are prepared by dilution with emulsifier containing water.
Maize (Zea mays) leaf sections are sprayed with a preparation of the active ingredient of the desired concentration. Once dry, the leaf sections are infested with fall armyworm larvae (Spodoptera frugiperda).
After 7 days mortality in % is determined. 100% means all caterpillars have been killed and 0% means none of the caterpillars have been killed.

[3] = tested on: cattle tick larvae (Rhipicephalus microplus); assay: Rhipicephalus (Boophilus) microplus in-vitro contact test, larval cattle tick (strain Parkhurst, resistant against synthetic pyrethroids); details: after 48 hours, read-out: efficacy (larvae dead or moribund); for pest or weed control at 1 µg/cm2, 100 g/ha: 1 μg/cm^2 (=100 g/ha); for pest or weed control at 5 µg/cm2, 500 g/ha: 5 μg/cm^2 (=500 g/ha)
Protocol: Rhipicephalus (Boophilus) Microplus—In-Vitro Contact Tests Larval Cattle Tick (Strain Parkhurst, Resistant Against Synthetic Pyrethroids)
9 mg compound is solved in 1 mL acetone and diluted with acetone to the desired concentration. 250 μL of the test solution is filled in 25 mL glass test tubes and homogeneously distributed on the inner walls by rotation and tilting on a shaking device (2 h at 30 rpm). With a compound concentration of 900 ppm, an inner surface of 44.7 cm^2 and a homogeneous distribution, a dose of 5 μg/cm^2 is achieved.
After the solvent has evaporated, each test tube is filled with 20-50 cattle tick larvae (Rhipicephalus microplus), closed with a perforated lid and incubated in a horizontal position at 85% relative humidity and 27° C. in an incubator. After 48 hours efficacy is determined. The larvae are patted on the ground of the tubes and negative geotactic behavior is recorded.
An efficacy of 100% means all larvae are dead or moribund; 0% means no larvae are dead or moribund.

[4] = tested on: larvae of the banded cucumber beetle (Diabrotica balteata); assay: Diabrotica balteata spray test; details: 168 h, 100 g/ha (=32 μg/well), wheat seeds, after 7 days, read-out: efficacy (seedling growth)
Protocol: Diabrotica Balteata—Spray Test
• Solvent: 78.0 Parts by Weight of Acetone • 1.5 parts by weight of dimethylformamide • Emulsifier: Alkylarylpolyglycol Ether
(§2) To produce a suitable preparation of active compound, 1 part by weight of active compound is mixed with the stated amount of solvent, and the concentrate is diluted with water, containing an emulsifier concentration of 1000 ppm, to the desired concentration. Further test concentrations are prepared by dilution with emulsifier containing water.
Soaked wheat seeds (Triticum aestivum) are placed in a multiple well plate filled with agar and some water and are incubated for 1 day to germinate (5 seeds per well). The germinated wheat seeds are sprayed with a test solution containing the desired concentration of the active ingredient. Afterwards each unit is infected with 10-20 larvae of the banded cucumber beetle (Diabrotica balteata).
After 7 days efficacy in % is determined. 100% means all the seedlings have grown up like in the untreated, uninfected control; 0% means none of the seedlings have grown.

[5] = tested on: adult mosquitoes Aedes aegypti strain MONHEIM; assay: Aedes aegypti test (AEDSAE surface treatment & contact assay); details: 24 hours after contact, read-out: efficacy (mortality); for mortality at 20 mg/m2: surface concentration 20 mg/m^2, 30 minutes exposure; for mortality at 4 mg/m2: surface concentration 4 mg/m^2, 30 minutes exposure
Protocol: Aedes aegypti Test (AEDSAE Surface Treatment & Contact Assay) • Solvent: Aceton+2000 ppm rapeseed oil methyl ester (RME)
In order to produce a sufficient, active ingredient containing solution it is necessary to solve the test compound in the solvent-mix (acetone at 2 mg/ml/RME 2000 ppm). This solution is pipetted onto a glazed tile and after evaporation of the acetone, adult mosquitoes of the species Aedes aegypti strain MONHEIM are placed onto the dried surface. The exposure time is 30 minutes. Mortality in percent (%) is determined 24 hours after contact of the insects to the treated surface. 100% mortality means that all tested insects are dead, whereas 0% means that no insect died.

[6] = tested on: adult engorged female ticks (Rhipicephalus microplus); assay: Rhipicephalus (Boophilus) microplus injection test; details: 4 μg/tick, egg deposition after 7 days
Protocol: Rhipicephalus (Boophilus) Microplus—Injection Test
• Solvent: Dimethyl Sulfoxide
To produce a suitable preparation of active compound, 10 mg of active compound are dissolved in 0.5 mL solvent, and the concentrate is diluted with solvent to the desired concentration.
Five adult engorged female ticks (Rhipicephalus microplus) are injected with 1 μL compound solution into the abdomen. The ticks are transferred into replica plates and incubated in a climate chamber.
After 7 days egg deposition of fertile eggs is monitored. Eggs where fertility is not visible are stored in a climate chamber till hatching after about 42 days. An efficacy of 100% means all eggs are infertile; 0% means all eggs are fertile.

[7] = tested on: adult flies Musca domestica strain WHO-N; assay: Musca domestica test (MUSCDO surface treatment & contact assay); details: 24 hours after contact, read-out: efficacy (mortality); for mortality at 20 mg/m2: surface concentration 20 mg/m^2, 30 minutes exposure
Protocol: Musca domestica Test (MUSCDO Surface Treatment & Contact Assay) • Solvent: Aceton+2000 ppm rapeseed oil methyl ester (RME)
In order to produce a sufficient, active ingredient containing solution it is necessary to solve the test compound in the solvent-mix (acetone at 2 mg/ml/RME 2000 ppm). This solution is pipetted onto a glazed tile and after evaporation of the acetone, adult flies of the species Musca domestica strain WHO-N are placed onto the dried surface. The exposure time is 30 minutes. Mortality in percent (%) is determined 24 hours after contact of the insects to the treated surface. 100% mortality means that all tested insects are dead, whereas 0% means that no insect died.

[8] = tested on: brown planthopper (Nilaparvata lugens); assay: Nilaparvata lugens spray test; details: 96 h, rice plants, after 4 days
Protocol: Nilaparvata lugens—Spray Test • Solvent: 78.0 parts by weight of acetone • 1.5 parts by weight of dimethylformamide • Emulsifier: alkylarylpolyglycol ether
as §1
Rice plants (Oryza sativa) are sprayed with a preparation of the active ingredient of the desired concentration and the plants are infested with the brown planthopper (Nilaparvata lugens).
After 4 days mortality in % is determined. 100% means all planthoppers have been killed and 0% means none of the planthoppers have been killed.

[9] = tested on: adult mosquitoes Culex quinquefasciatus strain P00; assay: Culex quinquefasciatus test (CULXFA surface treatment & contact assay); details: 24 hours after contact, read-out: efficacy (mortality)
Protocol: Culex quinquefasciatus Test (CULXFA Surface Treatment & Contact Assay) • Solvent: Aceton+2000 ppm rapeseed oil methyl ester (RME)
In order to produce a sufficient, active ingredient containing solution it is necessary to solve the test compound in the solvent-mix (acetone at 2 mg/ml/RME 2,000 ppm). This solution is pipetted onto a glazed tile and after evaporation of the acetone, adult mosquitoes of the species Culex quinquefasciatus strain P00 are placed onto the dried surface. The exposure time is 30 minutes. Mortality in percent (%) is determined 24 hours after contact of the insects to the treated surface. 100% mortality means that all tested insects are dead, whereas 0% means that no insect died.

[10] = tested on: green peach aphid (Myzus persicae); assay: Myzus persicae spray test; details: foliar, 120 h, 100 g/ha, Chinese cabbage leaf disks, after 5 days
Protocol: Myzus persicae—Spray Test • Solvent: 78.0 parts by weight acetone • 1.5 parts by weight dimethylformamide • Emulsifier: alkylarylpolyglycol ether
as §1
Chinese cabbage (Brassica pekinensis) leaf disks infected with all instars of the green peach aphid (Myzus persicae), are sprayed with a preparation of the active ingredient of the desired concentration.
(§3) After 5 days mortality in % is determined. 100% means all aphids have been killed and 0% means none of the aphids have been killed.

[11] = tested on: larvae of the southern green stink bug (Nezara viridula); assay: Nezara viridula spray test; details: 96 h, barley plants, after 4 days
Protocol: Nezara viridula—Spray Test • Solvent: 78.0 parts by weight of acetone • 1.5 parts by weight of dimethylformamide • Emulsifier: alkylarylpolyglycol ether
as §2
Barley plants (Hordeum vulgare) are sprayed with a test solution containing the desired concentration of the active ingredient and are infested with larvae of the southern green stink bug (Nezara viridula).
After 4 days mortality in % is determined. 100% means all the stink bugs have been killed; 0% means none of the stink bugs have been killed.

[12] = tested on: southern root-knot nematode (Meloidogyne incognita); assay: Meloidogyne incognita test; details: 20 ppm, lettuce, after 14 days
Protocol: Meloidogyne Incognita—Test
• Solvent: 125.0 parts by weight of acetone
(§4) To produce a suitable preparation of active compound, 1 part by weight of active compound is mixed with the stated amount of solvent, and the concentrate is diluted with water to the desired concentration.
Vessels are filled with sand, a solution of the active ingredient, a suspension containing eggs and larvae of the southern root-knot nematode (Meloidogyne incognita) and lettuce seeds. The lettuce seeds germinate and the seedlings grow. Galls develop in the roots.
After 14 days the nematicidal effect in percent is determined by the formation of galls. 100% means no galls were found and 0% means the number of galls found on the roots of the treated plants was equal to that in untreated control plants.

[13] = tested on: cotton aphid (Aphis gossypii); assay: Aphis gossypii oral test; details: 120 h, after 5 days
Protocol: Aphis gossypii—Oral Test • Solvent: 100 Parts by Weight Acetone
as §4
50 μL compound solution is filled in microtiter plates and 150 μL IPL41 insect medium (33%+15% sugar) is added to obtain a total volume of 200 μL per well. Afterwards the plates are sealed with parafilm through which a mixed population of the cotton aphid (Aphis gossypii) can suck on the compound preparation.
as §3

[14] = tested on: green peach aphid (Myzus persicae); assay: Myzus persicae oral test; details: 120 h, after 5 days
Protocol: Myzus persicae—Oral Test • Solvent: 100 parts by weight acetone
as §4
50 μL compound solution is filled in microtiter plates and 150 μL IPL41 insect medium (33%+15% sugar) is added to obtain a total volume of 200 μL per well. Afterwards the plates are sealed with parafilm through which a mixed population of the green peach aphid (Myzus persicae) can suck on the compound preparation.
as §3

[15] = surface concentration 4 mg/m^2, 30 minutes exposure

Compound | mortality at 100 ppm [1] [%] | mortality at 100 g/ha [2] [%] | pest or weed control at 1 µg/cm2, 100 g/ha [3] [%] | pest or weed control at 5 µg/cm2, 500 g/ha [3] [%] | pest or weed control at 32 µg/disc, 100 g/ha [4] [%] | mortality at 20 mg/m2 [5] [%] | efficacy (infertile eggs) [6] [%] | mortality at 20 mg/m2 [7] [%] | mortality at 500 g/ha [8] [%] | mortality at 4 mg/m2 [5] [%] | mortality at 4 mg/m2 [9, 15] [%] | mortality at 20 mg/m2 ([9]; surface concentration 20 mg/m^2, 30 minutes exposure) [%] | mortality at 4 mg/m2 [7, 15] [%] | mortality at 100 g/ha [10] [%] | mortality at 500 g/ha [11] [%] | nematicidal effect (formation of galls) [12] [%] | mortality at 100 ppm [13] [%] | mortality at 20 ppm [14] [%]
C[C@H](NC(=O)c1cc(OC(F)(F)F)cc(C(C)(C)C#N)c1)c1nc2cccnc2n1-c1ccc(C#N)cn1 [Example I-1] | 100 | 100 | 90 | 80 | 100 | 80 to 100 | 100 | 80 to 100 | 100 |  |  |  |  |  |  |  |  | 
C[C@H](NC(=O)c1cc(OC(F)(F)F)cc(C2CC2)c1)c1nc2cccnc2n1-c1ccc(C#N)cn1 [Example I-2] |  | 100 | 100 | 100 |  | 80 to 100 | 100 | 80 to 100 |  |  |  |  |  |  |  |  |  | 
C[C@H](NC(=O)c1cc(OC(F)(F)F)cc(C2(C#N)CC2)c1)c1nc2cccnc2n1-c1ccc(C#N)cn1 [Example I-3] |  | 100 | 90 | 90 | 100 | 80 to 100 | 100 | 80 to 100 | 90 | 80 to 100 | 80 to 100 | 80 to 100 | 80 to 100 | 100 | 100 |  |  | 
CNC(=O)c1ccc(-n2c(C(C)NC(=O)c3cc(C(F)(F)F)cc(C(F)(F)F)c3)nc3cccnc32)nc1 (stereo not drawn) [Example I-25] |  |  |  |  |  |  |  |  |  |  |  |  |  |  | 100 | 90 |  | 
CNC(=O)c1ccc(-n2c(C(C)NC(=O)c3cc(OC(F)(F)F)cc(OC(F)(F)F)c3)nc3cccnc32)nc1 (stereo not drawn) [Example I-27] |  |  |  |  |  |  |  |  |  | 80 to 100 |  |  |  |  |  | 90 | 100 | 100
C[C@H](NC(=O)c1cc(OC(F)(F)F)cc(S(C)(=O)=O)c1)c1nc2cc(F)cnc2n1-c1ccc(C#N)cn1 [Example I-38] |  | 100 |  |  | 100 |  |  |  |  |  |  |  |  |  | 100 | 90 |  | 
